Where “and” joins values, the source holds several entries; their conditions need not be identical. Equal values may be shown once.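 48-hour exposure; five concentrations; linearly interpolated endpoints. GI50 is the concentration that inhibits growth by half. TGI is the concentration that stops growth completely.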
What was measured:
Test in all cases: NCI-60 cell line screen, 48 h
[1] = test system: M14 melanoma
[2] = test system: COLO 205 colon
[3] = test system: T-47D breast
[4] = test system: NCI/ADR-RES ovarian
[5] = test system: SNB-75 CNS
[6] = test system: U251 CNS
[7] = test system: OVCAR-8 ovarian
[8] = test system: HOP-92 NSCLC

SMILES | GI50 [1] | TGI [1] | GI50 [2] | TGI [2] | GI50 [3] | TGI [3] | GI50 [4] | TGI [4] | GI50 [5] | TGI [5] | GI50 [6] | TGI [6] | GI50 [7] | TGI [7] | GI50 [8] | TGI [8]
COc1cc(OC)c(/C=C/S(=O)(=O)Cc2ccc(OC)c(NCC(=O)O)c2)c(OC)c1 | 0.0965 µM and 0.0467 µM | > 10 µM | 0.238 µM and 0.274 µM | 0.714 µM and 0.738 µM | > 100 µM | > 100 µM | 0.0678 µM and 0.0332 µM | > 3.12 µM | 0.0682 µM and 0.0492 µM | > 100 µM | 0.193 µM and 0.0477 µM | > 100 µM | 0.273 µM and 0.104 µM | > 100 µM | – | –
COc1ccc(N(Cc2cc(OC)c(OC)c(OC)c2)C2OC(=O)c3ccccc32)cc1 (centres undefined) | 0.39 µM | > 100 µM | 0.39 µM | 5.77 µM | 78 µM | > 100 µM | – | – | – | – | 0.385 µM | > 34.7 µM | 0.779 µM | > 100 µM | 0.349 µM | > 100 µM
Cn1c(COC(=O)NCCN2CCOCC2)nc2c(N3CCOCC3)nc(-c3ccccc3)nc21 | 1.15 µM | 2.58 µM | 1.49 µM | 3.36 µM | – | – | 1.93 µM | 6.78 µM | 1.11 µM | 2.67 µM | 1.37 µM | 2.9 µM | 1.3 µM | 3.4 µM | 0.779 µM | 2.45 µM
CCOc1cccnc1/C=N/NC(N)=S | 3.14 µM | 15 µM | 3.87 µM | > 100 µM | 4.85 µM | > 100 µM | 3.99 µM | > 100 µM | 3.84 µM | > 100 µM | 2.9 µM | > 100 µM | 3.48 µM | > 100 µM | – | –
COc1cc(OC)cc(N2CCN(C(=O)Nc3nc4cc(F)ccc4nc3OC)CC2)c1 | – | – | 0.0267 µM and 0.0321 µM and 0.0266 µM | 0.0831 µM and 0.123 µM and 0.0771 µM | 0.832 µM | 43.8 µM | < 0.0148 µM and 0.0274 µM and 0.012 µM | 45 µM and 28.8 µM | 0.0197 µM and 0.0243 µM | 56.4 µM and 57.2 µM | 0.0356 µM and 0.0448 µM and 0.0428 µM | 27.3 µM and 20.2 µM | 0.0437 µM and 0.0499 µM and 0.056 µM | > 100 µM | < 0.01 µM and 0.0062 µM | 19.3 µM and 3.83 µM and 6.77 µM
COc1cc(C(=O)/C=C/c2c(C(F)(F)F)nc3sccn23)cc(OC)c1OC | – | – | 1.94 µM | 3.44 µM | 2.12 µM | 5.76 µM | – | – | 1.87 µM | 4.86 µM | 1.38 µM | 2.79 µM | 3.08 µM | 22.6 µM | 7 µM | 22.4 µM
OCCCCC#Cc1ccccc1C#Cc1cnccn1 | – | – | 32 µM | > 100 µM | 27.5 µM | > 100 µM | 25.1 µM | 92.2 µM | 17.3 µM | 53.7 µM | 37.8 µM | > 100 µM | 33 µM | > 100 µM | 19.5 µM | 88.4 µM
CC1(C)CC2(C)OC2C2(C1)N=NC(=Nc1ccccc1)O2 (centres undefined) | 5.15 µM | 19.2 µM | 10.9 µM | 24.9 µM | 2.83 µM | 14.4 µM | 4.44 µM | 55.2 µM | 16.4 µM | 30.4 µM | 13 µM | 26 µM | 2.9 µM | > 100 µM | – | –
COC(=O)C1=C(O)C(C(=O)OC)[C@@]2(O)[C@@H](C(=O)OC)C(c3ccc(OC(=O)C(CC(C)C)NC(C)=O)cc3)C[C@@H]1[C@@H]2C(=O)OC (some centres undefined) | 27.5 µM | 88.1 µM | 46.6 µM | > 100 µM | 37.8 µM | > 100 µM | 39 µM | > 100 µM | – | – | 26.5 µM | 76.4 µM | 43.7 µM | > 100 µM | 39.5 µM | > 100 µM
COc1ccc(-n2nc(C)c3c2N(C)C2(C)C[C@@H]4C3(C)[C@@H]3CC4(C2)N(C)c2c(c(C)nn2-c2ccc(OC)cc2)[C@H]3C)cc1 (some centres undefined) | – | – | – | – | 2.44 µM | 81.9 µM | 8.03 µM | > 100 µM | – | – | 3.94 µM | 22.5 µM | 4.19 µM | 92.7 µM | – | –
C[C@H](NC(=O)CCC(F)(F)F)C(=O)N[C@@H]1C(=O)N(CCO)c2ncccc2-c2ccccc21 | > 100 µM | > 100 µM | > 100 µM | > 100 µM | > 100 µM | > 100 µM | > 100 µM | > 100 µM | > 100 µM | > 100 µM | > 100 µM | > 100 µM | > 100 µM | > 100 µM | – | –
CC(=O)N[C@@H]1CCC[C@H](C(=O)Nc2cc(-c3cnn4c3CC(C)(C)C4)c(Cl)cn2)C1 | – | – | – | – | 0.0101 µM | 0.719 µM | 0.199 µM | > 100 µM | < 0.01 µM | 0.029 µM | < 0.01 µM | > 100 µM | < 0.012 µM | > 100 µM | < 0.01 µM | 0.0389 µM
CCCCCCN1C(=O)CN=C1Nc1ccc2cc3ccc(NC4=NCC(=O)N4CCCCCC)cc3nc2c1 | 1.95 µM | 4.84 µM | 1.88 µM | 4.04 µM | 1.71 µM | 4.97 µM | 3.32 µM | 15 µM | 2.15 µM | 12.4 µM | 1.63 µM | 3.13 µM | – | – | 1.63 µM | 3.78 µM
O=C(NO)C(O)C(O)C(O)C(O)CO (centres undefined) | > 100 µM | > 100 µM | > 100 µM and 51.5 µM | > 100 µM | > 100 µM | > 100 µM | > 100 µM | > 100 µM | – | – | > 100 µM | > 100 µM | > 100 µM | > 100 µM | > 100 µM | > 100 µM
Cc1csc(Nc2nc(-c3cccc(Cl)c3)nc(C(Cl)(Cl)Cl)n2)n1 | > 33.3 µM | > 33.3 µM | 1.04 µM | 5.43 µM | 1.04 µM | 8.54 µM | 4.15 µM | > 33.3 µM | – | – | 1.4 µM | 19.9 µM | 7.77 µM | > 33.3 µM | 0.801 µM | 3.21 µM
COc1cc(C(=O)N/N=C/c2cccc([N+](=O)[O-])c2)cc(OC)c1OC | 4.3 µM | 54.3 µM | 5.11 µM | 26.9 µM | 35.6 µM | > 100 µM | 3.55 µM | 59.2 µM | 6.92 µM | 56.1 µM | 4.47 µM | 26.1 µM | 23.6 µM | > 100 µM | – | –
Cc1nc(C(N)=S)sc1C(=O)CC(=O)C(=O)Nc1cccc(Cl)c1C | – | > 100 µM | – | – | – | > 100 µM | – | > 100 µM | – | > 100 µM | – | > 100 µM | – | > 100 µM | – | > 100 µM

Reference: PubChem BioAssay (NCI)
